# Assay results from PubChem BioAssay AID268 (DTP/NCI, 2004).
# Values joined by “and” are separate entries in the source; they are usually repeats but may differ in a detail not shown here. Identical values can stand only once.
# System: CD2F1 mice, P1798 lymphosarcoma sc, tumor weight T/C
# Experiment: NCI In Vivo Anticancer Drug Screen. Data for tumor model P1798 Lymphosarcoma (subcutaneous) in CD2F1 (CDF1) mice
# Conditions: endpoint: mean tumor weight, higher = larger tumour
# Experimental: The antitumor activity of compounds was measured in mice bearing transplantable tumors. Survival or tumor size were measured and the results are expressed as the measurement made in the treated group (T) divided by the measurement made in the vehicle treated control group (C). The tumor model used in this assay is P1798 Lymphosarcoma (subcutaneous) in CD2F1 (CDF1) mice
# [1] = dose: 12.5 mg/kg/injection, schedule: Q01DX010 (ip), vehicle: saline
# [2] = dose: 25.0 mg/kg/injection, schedule: Q01DX010 (ip), vehicle: saline
# [3] = dose: 50.0 mg/kg/injection, schedule: Q01DX010 (ip), vehicle: saline
# [4] = dose: 1.25 mg/kg/injection, schedule: Q01DX010 (ip), vehicle: saline
# [5] = dose: 2.5 mg/kg/injection, schedule: Q01DX010 (ip), vehicle: saline
# [6] = dose: 100.0 mg/kg/injection, schedule: Q01DX010 (ip), vehicle: saline
# [7] = dose: 200.0 mg/kg/injection, schedule: Q01DX010 (ip), vehicle: saline
# [8] = dose: 400.0 mg/kg/injection, schedule: Q01DX010 (ip), vehicle: saline
compound,measurement,setting,value
CC1CCC2C(C)C3C(CC4C5CC=C6CC(OC7OC(CO)C(O)C(OC8OC(CO)C(O)C(O)C8O)C7OC7OC(C)C(O)C(O)C7O)CCC6(C)C5CCC43C)N2C1 (centres undefined),T/C,"dose: 25.0 mg/kg/injection, schedule: Q01DX010 (sc), vehicle: steriod suspending solution",65 % of control
same,T/C,"dose: 50.0 mg/kg/injection, schedule: Q01DX010 (sc), vehicle: steriod suspending solution",44 % of control
same,T/C,"dose: 100.0 mg/kg/injection, schedule: Q01DX010 (sc), vehicle: steriod suspending solution",16 % of control
same,T/C,"dose: 200.0 mg/kg/injection, schedule: Q01DX010 (sc), vehicle: steriod suspending solution",9 % of control and 26 % of control
same,T/C,"dose: 400.0 mg/kg/injection, schedule: Q01DX010 (sc), vehicle: steriod suspending solution",30 % of control
NCCCC(N)C(=O)NCCCCCCCCCCNC(=O)C(N)CCCN (centres undefined),T/C,"dose: 6.25 mg/kg/injection, schedule: Q01DX010 (ip), vehicle: saline",98 % of control
same,T/C,[1],86 % of control
same,T/C,[2],92 % of control
same,T/C,[3],65 % of control
O=C1C=Cc2ccc(O)cc2C1=O,T/C,[4],72 % of control
same,T/C,[5],63 % of control
S=c1nc[nH]c2nc[nH]c12,T/C,"dose: 10.0 mg/kg/injection, schedule: Q01DX010 (ip), vehicle: alkali diluted with saline",90 % of control
same,T/C,"dose: 80.0 mg/kg/injection, schedule: Q01DX010 (ip), vehicle: alkali diluted with saline",35 % of control
NCC(=O)NCCCCCCNCCCCCCNC(=O)CN,T/C,[3],82 % of control
same,T/C,[6],113 % of control
same,T/C,[7],89 % of control
same,T/C,[8],73 % of control
CC(=O)OC1C=CC(=O)OC1C1OC1C (centres undefined),T/C,"dose: 4.0 mg/kg/injection, schedule: Q01DX011 (ip), vehicle: saline",53 % of control
same,T/C,"dose: 6.0 mg/kg/injection, schedule: Q01DX011 (ip), vehicle: saline",72 % of control
same,T/C,"dose: 9.0 mg/kg/injection, schedule: Q01DX011 (ip), vehicle: saline",62 % of control
same,T/C,"dose: 13.0 mg/kg/injection, schedule: Q01DX011 (ip), vehicle: saline",56 % of control
O=C(NCCCC(NC(=O)OCc1ccccc1)C(=O)NCCCNCCCCNCCCNC(=O)C(CCCNC(=O)OCc1ccccc1)NC(=O)OCc1ccccc1)OCc1ccccc1 (centres undefined),T/C,"dose: 0.63 mg/kg/injection, schedule: Q01DX010 (ip), vehicle: saline",156 % of control
same,T/C,[4],91 % of control
same,T/C,[5],111 % of control
NC(Cc1c[nH]c2ccc(N(CCCl)CCCl)cc12)C(=O)O (centres undefined),T/C,"dose: 0.25 mg/kg/injection, schedule: Q01DX010 (ip), vehicle: saline",106 % of control
same,T/C,"dose: 0.5 mg/kg/injection, schedule: Q01DX010 (ip), vehicle: saline",97 % of control
same,T/C,"dose: 1.0 mg/kg/injection, schedule: Q01DX010 (ip), vehicle: saline",40 % of control
same,T/C,"dose: 2.0 mg/kg/injection, schedule: Q01DX010 (ip), vehicle: saline",13 % of control
CC(=O)NCCCCCCNCCCCCCNC(C)=O,T/C,[3],99 % of control
same,T/C,[6],92 % of control
same,T/C,[7],102 % of control
same,T/C,[8],80 % of control
NC(N)=NCCCC(N)C(=O)NCCCCCCNC(=O)C(N)CCCN=C(N)N (centres undefined),T/C,[2],94 % of control
same,T/C,[3],85 % of control
same,T/C,[6],99 % of control
same,T/C,[7],90 % of control
CCc1c(CC(=O)O)c2cc(C)ccc2n1Cc1ccc(Cl)cc1,T/C,[1],120 % of control
same,T/C,[2],87 % of control
same,T/C,[3],54 % of control
CC(=O)Nc1c(Cl)cc2c(c1Cl)Cc1cc([N+](=O)[O-])ccc1-2,T/C,"dose: 15.0 mg/kg/injection, schedule: Q01DX011 (ip), vehicle: carboxymethylcellulose (CMC)",85 % of control
same,T/C,"dose: 65.0 mg/kg/injection, schedule: Q01DX011 (ip), vehicle: carboxymethylcellulose (CMC)",108 % of control
N#Cc1ccc(S(N)(=O)=O)cc1,T/C,"dose: 22.0 mg/kg/injection, schedule: Q01DX010 (ip), vehicle: saline",70 % of control
same,T/C,"dose: 33.0 mg/kg/injection, schedule: Q01DX010 (ip), vehicle: saline",54 % of control
same,T/C,"dose: 49.0 mg/kg/injection, schedule: Q01DX010 (ip), vehicle: saline",67 % of control
same,T/C,"dose: 73.0 mg/kg/injection, schedule: Q01DX010 (ip), vehicle: saline",35 % of control
CC(=O)NCCCCCCNC(C)=O,T/C,[3],112 % of control
same,T/C,[6],95 % of control
same,T/C,[7],119 % of control
same,T/C,[8],86 % of control
